The values below come from patent US6818446B2, “Compositions and methods for the analysis of mucin gene expression and identification of drugs having the ability to inhibit mucin gene expression” (The Regents of the University of California, priority 2001, dated 2004).

Entries after “also recorded” stand apart in the source; their conditions may differ.

The subject of assay [1] is MUC5B-b2 promoter. Nature of the assay: Effect of culture conditions and retinoic acid on MUC5B-b2 promoter-reporter activity in primary human TBE cells. The class given is cell-based. The following applies: retinoic acid 30 nM.
Experimental: For studying the effects of culture conditions on the promoter-reporter gene activity, primary human TBE cultures were grown in 60 mm dishes and transfected with 1 μg of MUC5B promoter-luciferase construct DNA and 0.5 μg pSV-β-gal expression vector. One day following the transfection, cultures were passaged into either 35 mm tissue culture dishes or into collagen gel-coated 25 mm Transwell™ chambers (Coming-COSTAR Catalog Number 3506). Additionally, the cultures were maintained either in the absence or presence of supplemental all-trans-retinoic acid (30 nM). For Transwell™ cultures, chambers were maintained in an air-liquid interface for an additional three days. Cell extracts were prepared and luciferase and β-galactosidase activities were analyzed as described above. For each transfection, relative luciferase activity was expressed after normalization for β-galactosidase activity. The results are presented as a mean of relative activities from at least triplicate dishes, and data is collected from at least three independent experiments. Activity is expressed as units of luciferase activity per unit of β-gal activity (units/beta-gal). […] Results are expressed as “fold increase” of luciferase activity, comparing RA-treated and RA-untreated cultures, where the activity of the RA untreated culture is set to 1. […]
Assay [2] has as its system MUC5B message. In words: Northern blot analysis of MUC5B message in primary TBE cell cultures. The note with it: primary human TBE cells, presence vs absence of 30 nM retinoic acid.
The test system of assay [3] is MUC5B promoter. In words: MUC5B-b2 luciferase reporter activity in primary TBE cultures derived from transgenic mice. The class given is cell-based. The note with it: transgenic mouse TBE cells; cytokine 10 ng/ml, 7 days. Here is the method: The transgenic mice described in EXAMPLE 9 were used to isolate TBE cells, which were maintained in culture. The TBE cells were maintained in three culture conditions, which were control (no supplement), with interleukin-6 (IL-6) at a concentration of 10 ng/ml or with IL-17 at a concentration of 10 ng/ml. The cells were maintained in the presence of the cytokines for 7 days, harvested and cell extracts were prepared as described in EXAMPLE 8. The luciferase activity in each cell extract was determined, and normalized for total protein concentration of the extract samples.
On the technique in general: In a reporter assay the amount or activity of a reporter protein is the signal.

Assay [4] deals with MUC5B promoter. In words: Luciferase activity in stably transfected HBE1 cells carrying the MUC5B promoter reporter. Format: cell-based, human. The following applies: cytokine 10 ng/ml. Here is the method:
Experimental—The established cell line HBE1 was cultured in 35 mm dishes and grown to 60-80% confluence. These cells were cotransfected with either MUC-5B reporter construct and a second plasmid encoding the neomycin-resistance (neo) selectable marker. The chimeric reporter plasmids used in the transfections were purified using QIAGEN® plasmid isolation kits, and the cotransfections were done using Roche FuGENE 6™ transfection reagent (Roche Molecular Biochemicals, Indianapolis, Ind.) according to the manufacturer's instructions. In these transfections, 2.5 μg of MUC5B reporter plasmid DNA and 0.5 μg of the neomycin resistance marker plasmid per 35 mm culture dish were used for each transfection.
Following the cotransfection, cells were cultured for an additional 48 to 72 hours. At this time, the medium was replaced with fresh medium containing the neomycin analogue G-418 at a concentration of 100 μg/ml. The selection was maintained for approximately 21 days, at which time clones of resistant transfected cells were replated and maintained as continuous lines. Cell extracts were prepared and luciferase activity quantitated exactly as described in EXAMPLE 8, with the exception that cell extracts were normalized for total protein content, and not β-galactosidase activity. In addition, these cells were cultured in the absence or presence of IL-6 (10 ng/ml) or IL-17 (10 ng/ml).

`CC1=C(/C=C/C(C)=C/C=C/C(C)=C/C(=O)O)C(C)(C)CCC1` [retinoic acid, all-trans-retinoic acid]: the “MUC5B-b2 reporter gene activity, RA-treated vs RA-untreated, tissue culture dishes (TC)” value in assay [1] (TC) is on record as “not affected”. For the same molecule, the “MUC5B-b2 reporter gene activity, fold increase RA-treated vs RA-untreated, BICG conditions” value in assay [1] (collagen gel-coated Transwell chambers, air-liquid interface) is reported as “five-fold”. The “levels of MUC5B message in BI and BICG cultures” value in assay [2] (Transwell chambers (BI) or collagen gel-coated Transwell chambers (BICG)) is recorded as “greatly enhanced”. Moreover, in assay [2] (tissue culture dishes (TC) or collagen gel coated dishes (CG)), the “levels of MUC5B message in TC and CG cultures” value was “unaffected”.
In the case of “IL-17: pro-inflammatory cytokine IL-17 added to cell cultures”, in assay [3], the “MUC5B promoter activity (luciferase normalized for total protein) vs control without interleukin” value is recorded as “significant upregulation”. For the same molecule, the “luciferase reporter activity in presence vs absence of cytokine” value in assay [4] is recorded as “strongly induced; also recorded: upregulated”.
As to “IL-6: pro-inflammatory cytokine interleukin-6 added to cell cultures”, in assay [3], the “MUC5B promoter activity (luciferase normalized for total protein) vs control without interleukin” value is on record as “significant upregulation”. In assay [4], the “luciferase reporter activity in presence vs absence of cytokine” value is “strongly induced; also recorded: upregulated”.
